Experiments:
MroB/C = MroB/C dehydration (Dha formation) of MroA precursor peptide variants, MALDI-TOF-MS / LC-MS/MS; type: biochemical, Micromonospora rosaria; details: for dehydration by MroBC (site and extent): MroBC assays followed by LC-MS/MS analysis, result in words; for Dha formation: MroA2 multi-site variants, in vitro translated, MALDI-TOF-MS
Procedure: In a 0.65 mL protein low-binding Eppendorf tube placed on ice. 0.75 μL of purified mroA variant template DNA was mixed with 0.75 μL of Solution B and 1 μL of Solution A of PURExpress In vitro Protein Synthesis Kit (E6800L) purchased from NEB (total volume of reaction is 2.5 μL). The translation reactions were performed at 37° C. for 1 h on an aluminum block.
For a full MroBCD substrate scope investigation, a total translation volume for each variant of 7.5 μL was performed. 1.5 μL of 90 mM iodoacetamide (IAA) was added to quench dithiothreitol (DTT) in the translation reaction mixture, a thiol-based nucleophile that can react with electrophilic dehydroalanines generated from MroBC-catalyzed dehydration assays. The translation product was split into two parts with these corresponding volumes: 3 μL and 6 μL. In the 6 μL part. 10.2 μL of the enzyme mix containing enzymes and cofactors was added along with 1.8 μL 90 mM ATP (pH 7.5), which was used to initiate the reaction. The enzyme mix was made by adding these components in the following order: HEPES pH 7.5, MgCl2, glutamate, T. bispora tRNA^Glu (CUC), thermostable inorganic pyrophosphatase (TIPP), TEV (L56V/S135G/S219V) (w/w ratio with a total amount of MBP-tagged protein=1:10), MBP-MroB, MBP-MroC, and T. bispora GluRS. The enzyme mix was incubated 25 min at room temperature before adding to the translation product to facilitate in situ TEV-catalyzed cleavage of MBP from MBP-MroB and MBP-MroC. The enzymatic reaction proceeded for 1 h at room temperature. Overall, the concentration of components in the 18 μL reaction mix is as follows: 50 mM HEPES pH 7.5, 5 mM MgCl2. L-glutamate 1 mM, 3 μM T. bispora tRNA^Glu, 1 μM T. bispora GluRS, 2 μM MBP-MroB, 2 μM MBP-MroC, […], 0.027 U/μL TIPP, and 5 mM IAA. In addition, the 3 μL part was incubated with the same buffer lacking enzymes and tRNA as a translation control.
The reactions were performed similarly as described above, with 10 μM substrate concentration and without IAA. The total volume of each reaction is 100 μL.
Enzymatic assays were desalted using solid-phase extraction prior to LC-ESI-MS/MS analysis. Specifically, except for the thiazol(in)es-containing pyritide (which utilize 8 mg Pierce C18 Spin Column), the samples were applied to Toptip C18 (10-200 μL, Glygen Corp) wetted with 50 μL of 80% acetonitrile (0.1% formic acid) and equilibrate with 150 μL of 0.1% formic acid following the manufacturer instructions. The C18 columns (tips) are then washed with 150 μL of 0.1% formic acid and eluted using 100 μL 80% acetonitrile (0.1% formic acid). The samples were then dried utilizing lyophilization and redissolved in 25% acetonitrile (80 μL for enzymatic assays of in vitro-translated substrates and 200 μL for enzymatic assays of purified substrates). Then 20 μL of each sample was injected into an Agilent AdvanceBio Peptide Plus column (2.1×150 mm, 2.7 μm) equipped with an Agilent 6545B Q-TOF interfaced with an Agilent 1290 Infinity II LC system. Mobile phase solvents were composed of H2O, 0.1% formic acid (Solvent A), and acetonitrile 0.1% formic acid (Solvent B). The column compartment was maintained at 35° C. during all experiments. The column was equilibrated with 5 column volumes of starting mobile phase (95% A and 5% B) between injections. The gradient of all LC runs was as follows: 0-2 min: 95% A 5% B, 2-3 min: 70% A 30% B, 3-18 min: 20% A 80% B, 18-20 min: 5% A 95% B. The samples were run to waste for the first 3 min before applying to the mass spectrometer. Mass range was set from 100 to 1700 m/z (except for 412MroA1 W7G: 100-3000 m/z). MS parameters were as follows: gas, 320° C. at 8 L/min: nebulizer, 35 psig: nozzle voltage, 1000 V: sheath gas, 350° C. at 11 L/min: capillary, 3500 V: fragmentor, 125 V: skimmer, 65 V: MS scan rate (10) spectra/s): MS-MS scan rate (5 spectra/s); and isolation width (MS/MS), 1.3 m z. […]

MroD = MroD [4+2] macrocyclization of didehydrated MroA2 variants, MALDI-TOF-MS; type: biochemical, Micromonospora rosaria; set-up: key: +++ indicates enzyme activity roughly equal to wild-type MroA2; ++ indicates modestly reduced enzyme activity; + indicates severely reduced enzyme activity; − indicates no detectable enzyme activity (no macrocycles observed); details: MroA2 multi-site variants; qualitatively estimated from leader peptide vs remaining didehydrated intermediate
Procedure: After incubation, the enzyme reaction (18 μL) was split into two equal parts. One part was treated with MBP-MroD such that the final concentration of MBP-MroD is 3 μM, and the other part was added the same volume but with buffer lacking MBP-MroD (50 mM HEPES, 300 mM NaCl, 2.5% glycerol, 0.5 mM TCEP). The reaction further proceeded for 1.5 h at room temperature. All reaction mixture was then desalted with solid-phase extraction using Ziptip with 0.6 μL C18 resin (EMD Millipore) and crystallized on an MTP384 steel target plate using either saturated sinapic acid or 50 mg/mL Super DHB [dissolved in 60% acetonitrile and 0.1% trifluoroacetic acid (TFA)] as the matrix. The crystallized spots were then analyzed using MALDI-TOF-MS (Bruker Ultraflex). The external standard for MALDI-TOF-MS analysis is ProteoMass Peptide and Protein MALDI-MS Calibration Kit (Sigma).

| Substance | dehydration by MroBC (site and extent) (MroB/C) | Dha formation (MroB/C) | Relative MroD conversion (MroD) |
| --- | --- | --- | --- |
| MroA2-S1G/W8G: MroA2 variant (MRRRGSMDNVVTEAAEFADLDIVDLDLAVDEELAALSVGGLGNTEVGAGGFFGRSGLI) | inefficiently dehydrated at Ser7 | – | – |
| MroA2-S7G: MroA2 variant (MRRRGSMDNVVTEAAEFADLDIVDLDLAVDEELAALSVGGLGNTEVGASGFFGRGWLI) | went to completion | – | – |
| MroA2-SIG: MroA2 variant (MRRRGSMDNVVTEAAEFADLDIVDLDLAVDEELAALSVGGLGNTEVGAGGFFGRSWLI) | went to completion | – | – |
| S7G/110G: MroA2 variant (MRRRGSMDNVVTEAAEFADLDIVDLDLAVDEELAALSVGGLGNTEVGASGFFGRGWLG) | completely dehydrated at Ser1 | – | – |
| S7G/W8G: MroA2 variant (MRRRGSMDNVVTEAAEFADLDIVDLDLAVDEELAALSVGGLGNTEVGASGFFGRGGLI) | completely dehydrated at Ser1 | – | – |
| SGAGLNRSWLI [Number 17] | – | 2 Dha | +++ |
| SGAQQHSWLI [Number 13] | – | 2 Dha | +++ |
| SGAVRFNGSWLI [Number 36] | – | 2 Dha | + |
| SGAWRSWLI [Number 6] | – | 2 Dha | +++ |
| SGDAMRWASWLI [Number 53] | – | 2 Dha | – |
| SGDDRDGGSWLI [Number 27] | – | Mix of 1, 2 | + |
| SGDGWRSWLI [Number 18] | – | 2 Dha | +++ |
| SGEMHQHSWLI [Number 41] | – | Mix of 1, 2 | + |
| SGERGMGKSWLI [Number 34] | – | 2 Dha | +++ |
| SGFDRAGHSWLI [Number 46] | – | 2 Dha | + |
| SGFIRNASWLI [Number 31] | – | 2 Dha | ++ |
| SGGRENSWLI [Number 11] | – | 2 Dha | ++ |
| SGGWRVAHSWLI [Number 45] | – | 2 Dha | + |
| SGGYRPRSWLI [Number 38-H7R] | – | 2 Dha | +++ |

| Substance | dehydration by MroBC (site and extent) (MroB/C) | Dha formation (MroB/C) | Relative MroD conversion (MroD) |
| --- | --- | --- | --- |
| SGHAAHSWLI [Number 7] | – | 2 Dha | +++ |
| SGHDNQARSWLI [Number 49] | – | 2 Dha | +++ |
| SGHQFKSWLI [Number 22] | – | 2 Dha | +++ |
| SGHWANSWLI [Number 15] | – | 2 Dha | +++ |
| SGIKNDASWLI [Number 23] | – | 2 Dha | +++ |
| SGIYHNSWLI [Number 20] | – | 2 Dha | +++ |
| SGKALERSWLI [Number 29-F7R] | – | Mix of 1,2 | ++ |
| SGKAPGRSWLI [Number 16] | – | 2 Dha | +++ |
| SGKGKQASWLI [Number 19] | – | 2 Dha | – |
| SGKLGFSWLI [Number 10] | – | 2 Dha | + |
| SGLGHSWLI [Number 1] | – | 2 Dha | + |
| SGLKFYHSWLI [Number 44] | – | 2 Dha | +++ |
| SGMARYSWLI [Number 26] | – | 2 Dha | + |
| SGMPRGSWLI [Number 8] | – | 2 Dha | +++ |
| SGNAWIKSWLI [Number 32] | – | 2 Dha | +++ |
| SGNERGSWLI [Number 9] | – | 2 Dha | +++ |
| SGNMHPGKSWLI [Number 40] | – | 2 Dha | ++ |
| SGPKGSWLI [Number 5] | – | 2 Dha | +++ |
| SGPKRWGHSWLI [Number 51] | – | 2 Dha | + |

| Substance | dehydration by MroBC (site and extent) (MroB/C) | Dha formation (MroB/C) | Relative MroD conversion (MroD) |
| --- | --- | --- | --- |
| SGPMHYSWLI [Number 21] | – | 2 Dha | +++ |
| SGPRANYSWLI [Number 30] | – | 2 Dha | ++ |
| SGQDVANRSWLI [Number 43] | – | 2 Dha | +++ |
| SGQGRNRSWLI [Number 24-V7R] | – | 2 Dha | +++ |
| SGQGRNVSWLI [Number 24] | – | 2 Dha | + |
| SGQPQRLGSWLI [Number 42] | – | 2 Dha | +++ |
| SGQYKFRSWLI [Number 48] | – | 2 Dha | +++ |
| SGREFANSWLI [Number 35] | – | 2 Dha | + |
| SGREFARSWLI [Number 35-N7R] | – | 2 Dha | +++ |
| SGRGYALSWLI [Number 25] | – | 2 Dha | ++ |
| SGRVALEASWLI [Number 37] | – | 2 Dha | + |
| SGRYAGRSWLI [Number 39-W7R] | – | 2 Dha | +++ |
| SGRYHSWLI [Number 12] | – | 2 Dha | +++ |
| SGVKAWSWLI [Number 14] | – | 2 Dha | +++ |
| SGVKFSWLI [Number 3] | – | 2 Dha | + |
| SGYANRAGSWLI [Number 33] | – | 2 Dha | +++ |
| SGYDRQRSWLI [Number 56-Y7R] | – | 2 Dha | +++ |
| SGYRRRAGSWLI [Number 50] | – | 2 Dha | +++ |

— patent publication US20260132172A1, “IN VITRO BIOSYNTHESIS OF DIVERSE PYRIDINE-BASED MACROCYCLIC PEPTIDES” (The Brd. of Trustees of the Univ. of Illinois, priority 2022, published 2026)
